From patent publication US7462614B2, “Imidazotriazine compounds” (Smithkline Beecham Corporation, priority 2003, dated 2008)

Experiments:
[1] = system: breast tumor (MCF7) cell line; assay: Methylene Blue Growth Inhibition Assay, MCF7; format: cell-based; conditions: Homo sapiens, 72 h; MCF7, 3 days; read-out: MeB Cell Line IC50
Source text: (§1) II. Methylene Blue Growth Inhibition Assay
(§2) Medium was removed by aspiration.

[2] = system: colon (HCT116) tumor cell line; assay: Methylene Blue Growth Inhibition Assay, HCT116; format: cell-based; conditions: Homo sapiens, HCT-116, 72 h; HCT116, 3 days; read-out: MeB Cell Line IC50
Source text: as §1, §2

[3] = system: Normal Human foreskin fibroblasts (HFF); assay: Methylene Blue Growth Inhibition Assay, HFF; format: cell-based; conditions: 72 h, 3 days, read-out: MeB Cell Line IC50
Source text: as §1, §2

[4] = biological target: T1, truncated human PLK1 (kinase domain) (Homo sapiens, UniProt P53350); assay: Assay for Inhibition of PLK1 (33P SPA enzyme activity); format: biochemical; conditions: 1 μM ATP, 2 nM enzyme; read-out: Ave pIC50 PLK Enzyme Inhibition (converted)
T1 construct: made in house; host or cells: baculovirus-infected T. ni insect cells
Outline: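 Enzyme is the 6×His-tagged PLK1 kinase domain, purified by Ni-chelate and gel filtration. Compounds added in DMSO, then enzyme; reaction stopped with EDTA/streptavidin SPA bead mix containing 60 μM ATP, read by 33P scintillation proximity.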

[5] = system: prostate (PC3) tumor cell line; assay: Methylene Blue Growth Inhibition Assay, PC3; format: cell-based; conditions: Homo sapiens, 72 h; PC3, 3 days; read-out: MeB Cell Line IC50
Source text: as §1, §2

[6] = system: colon (RKO) tumor cell line; assay: Methylene Blue Growth Inhibition Assay, RKO; format: cell-based; conditions: Homo sapiens, 72 h, 3 days, read-out: MeB Cell Line IC50
Source text: as §1, §2

[7] = system: lung (H460) tumor cell line; assay: Methylene Blue Growth Inhibition Assay, H460; format: cell-based; conditions: Homo sapiens, NCI-H460, 72 h; H460, 3 days; read-out: MeB Cell Line IC50
Source text: as §1, §2

[8] = system: MDA435; assay: cells; conditions: MDA435, 72 h, read-out: MeB Cell Line IC50
[9] = system: COLO205; assay: cells; conditions: Homo sapiens, COLO 205, 72 h, read-out: MeB Cell Line IC50
[10] = system: IMR90; assay: cells; conditions: Homo sapiens, IMR-90, 72 h, read-out: MeB Cell Line IC50
[11] = system: SAOS2; assay: cells; conditions: Homo sapiens, SAOS-2, 72 h, read-out: MeB Cell Line IC50

T1 sequence (P53350 21-346): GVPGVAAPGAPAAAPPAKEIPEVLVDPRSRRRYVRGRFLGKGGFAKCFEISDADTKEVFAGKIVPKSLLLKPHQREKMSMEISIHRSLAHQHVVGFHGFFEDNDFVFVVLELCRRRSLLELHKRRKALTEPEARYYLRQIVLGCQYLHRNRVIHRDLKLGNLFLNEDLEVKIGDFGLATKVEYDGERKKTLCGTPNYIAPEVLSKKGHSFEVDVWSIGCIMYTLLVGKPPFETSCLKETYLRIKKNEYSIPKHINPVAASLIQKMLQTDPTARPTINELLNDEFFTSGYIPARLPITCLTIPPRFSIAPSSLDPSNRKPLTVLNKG

Row | IC50 [1] [µM] | IC50 [2] [µM] | IC50 [4] [µM] | IC50 [5] [µM] | IC50 [6] [µM] | IC50 [7] [µM] | SMILES | IC50 [3] [µM] | IC50 [8] [µM] | IC50 [9] [µM] | IC50 [10] [µM] | IC50 [11] [µM]
1 | 1 to 10 | 1 to 10 | < 0.1 | 10 to 30 | 1 to 10 | 1 to 10 | COc1ccc(NC(C)=O)cc1Nc1ncc2c(C)nc(-c3cccc(C(F)(F)F)c3)n2n1 [Example 43, N-[4-Methoxy-3-({5-methyl-7-[3-(trifluoromethyl)phenyl]imidazo-[5,1-f][1,2,4]triazin-2-yl}amino)phenyl]acetamide] | 10 to 30 |  |  |  | 
2 | 1 to 10 | 1 to 10 | < 0.1 | 10 to 30 | 1 to 10 | 10 to 30 | CC(=O)Nc1ccc(Nc2ncc3c(C)nc(-c4cccc(C(F)(F)F)c4)n3n2)cc1 [Example 46, N-[4-({5-Methyl-7-[3-(trifluoromethyl)phenyl]imidazo[5,1-f][1,2,4]triazin-2-yl}amino)phenyl]acetamide] | 10 to 30 |  |  |  | 
3 | 10 to 30 | 1 to 10 | < 0.1 | 10 to 30 | 10 to 30 | 10 to 30 | CC(=O)Nc1cccc(Nc2ncc3c(C)nc(-c4cccc(C(F)(F)F)c4)n3n2)c1 [Example 47, N-[3-({5-Methyl-7-[3-(trifluoromethyl)phenyl]imidazo[5,1-f][1,2,4]triazin-2-yl}amino)phenyl]acetamide] | 10 to 30 |  |  |  | 
4 | 1 to 10 | 1 to 10 |  | 1 to 10 | 1 to 10 | 1 to 10 | COc1cc(Nc2ncc3c(C)nc(-c4cccc(C(F)(F)F)c4)n3n2)cc(OC)c1OC [Example 5, 5-Methyl-7-[3-(trifluoromethyl)phenyl]-N-(3,4,5-trimethoxyphenyl)-imidazo[5,1-f][1,2,4]triazin-2-amine] | 1 to 10 |  |  |  | 
5 | 1 to 10 | 1 to 10 | < 0.1 | 10 to 30 | 1 to 10 | 1 to 10 | Cc1nc(-c2ccccc2)n2nc(Nc3cccc(CCO)c3)ncc12 [Example 19, 2-{3-[(5-Methyl-7-phenylimidazo[5,1-f][1,2,4]triazin-2-yl)amino]phenyl}ethanol] | 10 to 30 |  |  |  | 
6 | 10 to 30 | 10 to 30 | 0.1 to 10 | 10 to 30 | 1 to 10 | 10 to 30 | Cc1nc(-c2cccc(C(F)(F)F)c2)n2nc(Nc3cccc(CNC(=O)OC(C)(C)C)c3)ncc12 [Example 48, tert-Butyl 3-({5-methyl-7-[3-(trifluoromethyl)phenyl]imidazo[5,1-f][1,2,4]triazin-2-yl}amino)benzylcarbamate] | 10 to 30 |  |  |  | 
7 | 1 to 10 | 1 to 10 | 0.1 to 10 | 10 to 30 | 1 to 10 | 1 to 10 | Cc1nc(-c2cccc(C(F)(F)F)c2)n2nc(Nc3cccc(S(N)(=O)=O)c3)ncc12 [Example 41, 3-({5-Methyl-7-[3-(trifluoromethyl)phenyl]imidazo[5,1-f][1,2,4]triazin-2-yl}amino)benzenesulfonamide] | 10 to 30 |  |  |  | 
8 | 10 to 30 | 1 to 10 | < 0.1 | 10 to 30 | 1 to 10 | 1 to 10 | Cc1nc(-c2cccc(C(F)(F)F)c2)n2nc(Nc3cccc(CCO)c3)ncc12 [Example 44, 2-[3-({5-Methyl-7-[3-(trifluoromethyl)phenyl]imidazo[5,1-f][1,2,4]triazin-2-yl}amino)phenyl]ethanol] | 10 to 30 |  |  |  | 
9 | 10 to 30 | 10 to 30 | < 0.1 | 10 to 30 | 10 to 30 | 10 to 30 | Cc1nc(-c2ccccc2)n2nc(Nc3cccc(CCS(=O)(=O)O)c3)ncc12 [Example 57, 2-{3-[(5-Methyl-7-phenylimidazo[5,1-f][1,2,4]triazin-2-yl)amino]phenyl}ethanesulfonic acid] | 10 to 30 |  |  |  | 

Continued, compound first:

Row | SMILES | IC50 [1] [µM] | IC50 [2] [µM] | IC50 [4] [µM] | IC50 [5] [µM] | IC50 [6] [µM] | IC50 [7] [µM] | IC50 [3] [µM] | IC50 [8] [µM] | IC50 [9] [µM] | IC50 [10] [µM] | IC50 [11] [µM]
10 | COc1cc(Nc2ncc3c(C)nc(-c4ccc(C(F)(F)F)cc4)n3n2)cc(OC)c1OC [Example 24, 5-Methyl-7-[4-(trifluoromethyl)phenyl]-N-(3,4,5-trimethoxy-phenyl)imidazo[5,1-f][1,2,4]triazin-2-amine] | 10 to 30 | 10 to 30 | 0.1 to 10 | 10 to 30 | 10 to 30 | 10 to 30 | 10 to 30 |  |  |  | 
11 | COc1cc(Nc2ncc3c(C)nc(-c4cccc(C(N)=O)c4)n3n2)cc(OC)c1OC [Example 16, 3-{5-Methyl-2-[(3,4,5-trimethoxyphenyl)amino]imidazo[5,1-f][1,2,4]triazin-7-yl}benzamide] | 10 to 30 | 10 to 30 | 0.1 to 10 | 10 to 30 | 10 to 30 | 10 to 30 | 10 to 30 |  |  |  | 
12 | COc1cc(Nc2ncc3c(C)nc(-c4cccc(C#N)c4)n3n2)cc(OC)c1OC [Example 8, 3-{5-Methyl-2-[(3,4,5-trimethoxyphenyl)amino]imidazo[5,1-f][1,2,4]triazin-7-yl}benzonitrile] | 10 to 30 | 10 to 30 | < 0.1 | 10 to 30 | 10 to 30 | 10 to 30 | 10 to 30 |  |  |  | 
13 | COc1cc(Nc2ncc3c(C)nc(-c4cccc(Br)c4)n3n2)cc(OC)c1OC [Example 9, 7-(3-Bromophenyl)-5-methyl-N-(3,4,5-trimethoxyphenyl)imidazo-[5,1-f][1,2,4]triazin-2-amine] | 1 to 10 | 1 to 10 | < 0.1 | 10 to 30 | 1 to 10 | 1 to 10 | 10 to 30 |  |  |  | 
14 | COc1cc(Nc2ncc3c(C)nc(-c4ccccc4)n3n2)cc(OC)c1OC [Example 1, 5-Methyl-7-phenyl-N-(3,4,5-trimethoxyphenyl)imidazo[5,1-f][1,2,4]triazin-2-amine] | 1 to 10 | 1 to 10 |  | 10 to 30 | 1 to 10 | 1 to 10 | 10 to 30 | 1 to 10 | 1 to 10 | 10 to 30 | 1 to 10
15 | COc1cc(Nc2ncc3c(C)nc(-c4ccccc4O)n3n2)cc(OC)c1OC [Example 22, 2-{5-Methyl-2-[(3,4,5-trimethoxyphenyl)amino]imidazo[5,1-f][1,2,4]triazin-7-yl}phenol] | 10 to 30 | 10 to 30 | 0.1 to 10 | 10 to 30 | 10 to 30 | 10 to 30 | 10 to 30 |  |  |  | 
